Article PMC6744458, “A ribose-functionalized NAD^+ with unexpected high activity and selectivity for protein poly-ADP-ribosylation” (Nature Communications, 2019)

Tests used:
Type in all cases: biochemical
[1] = molecular target: T1, catalytic domain of human PARP10 (Homo sapiens, UniProt Q53GL7); assay: automodification, click biotin labelling, streptavidin-HRP immunoblot; conditions: […] analogue, […] MgCl2, pH […]
T1 construct: catalytic domain residues 809-1017, N-terminal His6, E. coli BL21 (DE3)
T1 sequence (Q53GL7 809-1017): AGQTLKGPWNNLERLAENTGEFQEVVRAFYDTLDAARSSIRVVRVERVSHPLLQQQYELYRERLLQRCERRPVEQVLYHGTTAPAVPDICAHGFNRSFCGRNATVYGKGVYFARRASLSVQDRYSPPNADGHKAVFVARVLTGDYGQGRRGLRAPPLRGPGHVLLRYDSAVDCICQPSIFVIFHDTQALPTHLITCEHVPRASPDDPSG

[2] = molecular target: T2, catalytic domain of human PARP5a (Homo sapiens, UniProt O95271); assay: as above; conditions: […] analogue, […] MgCl2, pH […]
T2 construct: gene TNKS; catalytic domain residues 1093-1327, C-terminal His6, E. coli BL21 (DE3)
T2 sequence (O95271 1093-1327): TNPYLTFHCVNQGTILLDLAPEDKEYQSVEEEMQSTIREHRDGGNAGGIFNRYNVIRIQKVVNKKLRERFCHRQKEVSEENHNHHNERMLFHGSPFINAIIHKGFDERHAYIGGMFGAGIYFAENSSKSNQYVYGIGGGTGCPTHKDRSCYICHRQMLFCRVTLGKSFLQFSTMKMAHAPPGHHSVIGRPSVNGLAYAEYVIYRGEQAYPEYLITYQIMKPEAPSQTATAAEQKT

human NRK1 = molecular target: T3, human NRK1 (Homo sapiens, UniProt Q9NWW6); assay: HPLC conversion; conditions: […] NR6, […] ATP, […] MgCl2, pH […], room temperature
T3 construct: gene NMRK1; full length, C-terminal His6, pET-28a, E. coli BL21 (DE3)
T3 sequence (Q9NWW6 1-199): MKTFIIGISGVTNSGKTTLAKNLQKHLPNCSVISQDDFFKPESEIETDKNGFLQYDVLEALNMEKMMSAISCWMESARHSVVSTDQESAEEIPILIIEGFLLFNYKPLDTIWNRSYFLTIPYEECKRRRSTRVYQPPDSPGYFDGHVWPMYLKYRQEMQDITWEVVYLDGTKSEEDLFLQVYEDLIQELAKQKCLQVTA

C#CCNc1ncnc2c1ncn2[C@@H]1O[C@H](COP(=O)(O)OP(=O)([O-])OC[C@H]2O[C@@H]([n+]3cccc(C(N)=O)c3)[C@H](O)[C@@H]2O)[C@@H](O)[C@H]1O [6-a-NAD^+, 6-alkyne-NAD^+]
automodification, click biotin labelling, streptavidin-HRP immunoblot [1]: 6-a-NAD^+ and 2-a-NAD^+ that displayed strong automodification activities for both enzymes
automodification, click biotin labelling, streptavidin-HRP immunoblot [2]: 6-a-NAD^+ and 2-a-NAD^+ that displayed strong automodification activities for both enzymes

C#Cc1nc(N)c2ncn([C@@H]3O[C@H](COP(=O)(O)OP(=O)([O-])OC[C@H]4O[C@@H]([n+]5cccc(C(N)=O)c5)[C@H](O)[C@@H]4O)[C@@H](O)[C@H]3O)c2n1 [2-a-NAD^+, 2-alkyne-NAD^+]
automodification, click biotin labelling, streptavidin-HRP immunoblot [1]: 6-a-NAD^+ and 2-a-NAD^+ that displayed strong automodification activities for both enzymes
automodification, click biotin labelling, streptavidin-HRP immunoblot [2]: 6-a-NAD^+ and 2-a-NAD^+ that displayed strong automodification activities for both enzymes

[N-]=[N+]=N[C@H]1[C@@H](O)[C@H]([n+]2cccc(C(N)=O)c2)O[C@@H]1CO [NR6]
HPLC conversion (human NRK1): NRK1 that could only catalyze conversion of NR5 and NR6
